In patent US6624190B2, “2-acylamino-2-deoxy-glucono-1,5-lactones, a method for the production thereof, compositions containing them, and uses thereof” (Universite Pierre et Marie Curie (Paris VI), priority 1998, dated 2003):

Experiments:
[1] = comparison values; cited from earlier work
[2] = test system: bovine kidney β—N-acetyl glucosaminidase (EC 3.2.1.52); assay: N-acetyl glucosaminidase (NaGase) enzymatic inhibition, pNphNAG substrate; assay type: biochemical
Protocol: The enzyme used as a reference was bovine kidney β—N-acetyl glucosaminidase (EC 3.2.1.52) (Sigma A-2415) and its substrate was p-nitrophenyl 2-acetamido-2-deoxy glucopyranoside (Acros 22941-1000) (pNphNAG). The commercially available enzyme, in the form of a suspension in a 3.2 M solution of (NH4)2SO4, was centrifuged at 13000 rpm for 5 minutes and the residue was taken up in 1 ml of water. The solution obtained was the mother enzymatic solution.
Protocol: 100 μl of the enzymatic solution diluted to 1/10 was mixed with 100 μl of pH 4.2 citrate buffer and 300 μl of inhibitor solution (or water for the reference) and incubated at 37° C. for 5 minutes in a spectrophotometer cell. After adding 500 μl of substrate (5 mM or 2.5 mM), incubation was continued for 8 minutes at 37° C. and the optical density at 400 nm was monitored. The quantity of p-nitrophenol liberated by the enzymatic reaction was determined by correlating the optical density to a calibration curve (OD at 400 nm=f([p-nitrophenol])). The N-acetyl glucosaminidase activity unit was defined as the quantity of enzyme required to liberate one μmole of p-nitrophenol per minute under the conditions cited above.
I50 is defined as the concentration of compound capable of inhibiting 50% of the enzymatic activity under the assay conditions.
We colorimetrically monitored the quantities of p-nitrophenol liberated (in 10^−3 μmol/mn) by the action of N-acetyl glucosaminidase (NaGase) on pNphNAG (2.5 mM) in the presence of increasing quantities of (i) (concentration C in mM).
In order to determine the inhibition constant K1, we used Dixon's graphical method, which consisted of plotting the inverse of the initial velocity (1 Iv0) of the enzymatic reaction against the inhibitor concentration (C, in μM) for two different substrate concentrations. The abscissa of the intersection point of the two straight lines corresponds to —K1.

chicken lysozyme = target: T1, chicken lysozyme (Gallus gallus, UniProt P00698); assay: Lysozyme inhibition, Micrococcus lysodeikticus walls substrate; assay type: biochemical
T1 construct: purchased Sigma L-6876
T1 sequence (P00698 19-147): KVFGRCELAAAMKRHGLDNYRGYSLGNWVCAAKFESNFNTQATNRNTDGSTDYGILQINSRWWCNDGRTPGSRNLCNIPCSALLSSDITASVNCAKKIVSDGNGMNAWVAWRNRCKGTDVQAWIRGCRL
Protocol: The enzyme studied was 0.5 g/l chicken lysozyme (Sigma, L-6876) in a 100 mM, pH 6.5 phosphate buffer and the substrate was constituted by 17 mg/100 ml of Micrococcus lysodeikticus walls in suspension in the same buffer.
Protocol: 100 μl of enzymatic solution was diluted with 400 μl of inhibitor solution. This was left at ambient temperature for 5 or 10 minutes. 40 μl of mixture was added to 3 ml of the substrate suspension in a spectrophotometer cell. The optical density was recorded at 450 nm every 10 seconds for 3 minutes.

[3] = Determination of critical micellar concentration by surface tension (Wilhelmy plate method); assay type: physicochemical
Protocol: The surface tension γ of a liquid in contact with air was measured at 25° C. by the Wilhelmy plate method (Prolabo TENSIMAT n3 tensometer). This consisted of plunging a vertical platinum strip (19.54 mm long) into a liquid then gradually withdrawing it, monitoring the tension exerted on the strip by the liquid film. The maximum value recorded before complete detachment of the strip represented the surface tension, expressed in mN/m. After calibrating the apparatus (calibration at two points: the zero value with the strip in air and a value of 50.2 mN/m with the strip tested with a weight of 200 mg), the surface tensions of solutions containing increasing quantities of the surfactant were recorded (measurements repeated three times). The critical micellar concentration was obtained from conventional graphs of γ=f(logC) where C represents the concentration in mol/l.
The change in surface tension γ (in mN/m) of an aqueous solution (volume=10 ml) was monitored as a function of the quantities of dissolved product (C, in Mol/l) (A=C(O)C7H15 and R2=CH3). The critical micellar concentration corresponds to the concentration above which the surface tension becomes a constant.

Row | nature of inhibition ([2]; Dixon diagram) | Ki ([2]; Dixon's graphical method, substrate 2.5 mM and 5 mM, read-out: inhibition constant K1) [µM] | IC50 ([2]; pNphNAG 2.5 mM, pH 4.2 citrate buffer, 37° C., read-out: I50) [µM] | effect on lysozyme activity (chicken lysozyme; 0.1 mg/ml lysozyme, compound 1.8 mM) | affinity for lysozyme (chicken lysozyme; summary) | critical micellar concentration (CMC) ([3]; aqueous solution, 25° C.) [mM] | surface tension of water reduced to ([3]; reduction from 71 mN/m for concentrations of 0 to 25 mM (8.6 g/l)) [mN/m] | Structure (SMILES) | critical micellar concentration (CMC) of commercially available glycosylated surfactants [1] [mM]
1 | – | – | – | – | – | – | – | CCCCCCCCO[C@@H]1O[C@H](CO)[C@@H](O)[C@H](O)[C@H]1O [octyl glucoside, n-octyl glucoside] | 18
2 | – | – | – | – | – | – | – | CCCCCCCNC(=O)OC[C@H]1O[C@H](OC)[C@H](O)[C@@H](O)[C@@H]1O [HECAMEG] | 22
3 | competitive | ~3 | ~7 | No difference was detected | no affinity | 25 | 30 | CCCCCCCC(=O)OC[C@H]1OC(=O)[C@H](NC(C)=O)[C@@H](O)[C@@H]1O [(i), 2-acetamido-2-deoxy-6—O-octanoyl-glucono-1,5-lactone] | –
